Legend:
[1] = biological target: PHD3 (Homo sapiens, UniProt Q9H6Z9); test: HIF prolyl hydroxylase enzyme assay, PHD3; assay type: biochemical
Source text: (§1) Suitable assay methods are well known in the art.

[2] = test system: Human subjects with stage 3 or 4 chronic kidney disease; test: Platelet counts in chronic kidney disease patients treated orally with Compound A; assay type: in vivo
Procedure: No intravenous iron administration was allowed during the treatment, and subjects who had received more than one administration of IV iron within 12 weeks prior to randomization were excluded.
Groups A (n=24) and B (n=24) received an initial weight-adjusted dose of 60 mg (for subjects of 40 to 60 kg), 100 mg (for subjects of >60 to 90 kg), or 140 mg (for subjects of >90 to 140 kg), three times a week for 4 weeks. Treatment was continued for weeks 5 through 16 with dose adjusted every 4 weeks to maintain hemoglobin of 11-13 g/dL (target Hb range). Group A continued dosing three time a week, Group B was switched to twice weekly dosing.
Groups C (n=24) received a initial fixed dose of 50 mg, three times a week for 4 weeks and group D (n=24) received an initial fixed dose of 100 mg, three times a week. Treatment was continued for weeks 5 to 24 with dose adjusted to maintain hemoglobin of 10.5-12 g/dL (target Hb range). Hemoglobin and platelet counts were measured every 4 weeks.
In a separate analysis of the data from Example 1, all patient data on platelet count over time was combined and stratified into quartiles based on the baseline platelet count. Each quartile had n=24. Quartile 1 included the 24 patients with the lowest baseline platelet count. Quartile 2 included the 24 patients with the next highest baseline platelet count after the patients in quartile 1. Quartile 3 included the 24 patients with the next highest baseline platelet count after the patients in quartile 2. Quartile 4 included the 24 patients with the highest baseline platelet count.

[3] = biological target: PHD1 (Homo sapiens, UniProt Q96KS0); test: HIF prolyl hydroxylase enzyme assay, PHD1; assay type: biochemical
Source text: as §1

[4] = test system: Human subjects with stage 3 or 4 chronic kidney disease; test: Hemoglobin levels in chronic kidney disease patients treated orally with Compound A; assay type: in vivo; conditions: all groups A-D, oral, 16 or 24 weeks; all p<0.0001; dose-dependent
Procedure: No intravenous iron administration was allowed during the treatment, and subjects who had received more than one administration of IV iron within 12 weeks prior to randomization were excluded. […] Treatment was continued for weeks 5 through 16 with dose adjusted every 4 weeks to maintain hemoglobin of 11-13 g/dL (target Hb range). Group A continued dosing three time a week, Group B was switched to twice weekly dosing. Groups C (n=24) received a initial fixed dose of 50 mg, three times a week for 4 weeks and group D (n=24) received an initial fixed dose of 100 mg, three times a week. Treatment was continued for weeks 5 to 24 with dose adjusted to maintain hemoglobin of 10.5-12 g/dL (target Hb range). Hemoglobin and platelet counts were measured every 4 weeks.

[5] = test system: treated subjects; conditions: treatment of anemia with ESA; cited from earlier work

PHD1, sequence (Q96KS0 whole entry): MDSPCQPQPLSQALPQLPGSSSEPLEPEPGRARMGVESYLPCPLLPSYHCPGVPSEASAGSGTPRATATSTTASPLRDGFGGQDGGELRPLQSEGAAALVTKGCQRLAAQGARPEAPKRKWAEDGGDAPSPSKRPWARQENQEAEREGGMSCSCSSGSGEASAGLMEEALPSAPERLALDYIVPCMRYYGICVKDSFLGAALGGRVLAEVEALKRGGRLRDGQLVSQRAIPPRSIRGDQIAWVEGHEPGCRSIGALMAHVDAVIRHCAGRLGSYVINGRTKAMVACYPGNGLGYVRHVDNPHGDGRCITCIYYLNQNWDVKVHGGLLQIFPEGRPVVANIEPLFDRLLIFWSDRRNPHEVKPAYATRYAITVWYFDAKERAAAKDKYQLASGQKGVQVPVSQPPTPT
PHD3, sequence (Q9H6Z9 whole entry): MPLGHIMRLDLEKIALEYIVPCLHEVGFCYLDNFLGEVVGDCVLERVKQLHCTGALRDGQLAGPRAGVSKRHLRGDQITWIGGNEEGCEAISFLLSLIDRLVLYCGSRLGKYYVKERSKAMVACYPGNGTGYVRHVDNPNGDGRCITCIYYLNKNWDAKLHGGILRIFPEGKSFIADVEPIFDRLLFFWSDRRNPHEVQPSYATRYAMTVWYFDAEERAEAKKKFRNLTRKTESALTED

| Compound | IC50 [1] | Mean platelet count change from baseline to end of treatment ([2]; Group A, weight-adjusted dose three times a week, 16 weeks, baseline 267, p<0.0001) | Mean platelet count change from baseline to end of treatment ([2]; Group B, weight-adjusted dose, switched to twice weekly, 16 weeks, baseline 292, p<0.0001) | Mean platelet count change from baseline to end of treatment ([2]; Group C, initial fixed dose 50 mg three times a week, 24 weeks, baseline 255, p=0.89) | Mean platelet count change from baseline to end of treatment ([2]; Group D, initial fixed dose 100 mg three times a week, 24 weeks, baseline 231, p=0.30) | Mean change in platelet count from baseline to end of treatment, combined groups ([2]; week 17, p<0.0001) | Mean change in platelet count from baseline to end of treatment, combined groups ([2]; week 25, p=0.41) | Platelet count over course of treatment, stratified by baseline quartile ([2]; lower 3 quartiles, mean baseline 164.9, 224.8, 272.2 ×10^9/L) | Platelet count over course of treatment, stratified by baseline quartile ([2]; quartile 4 (highest), mean baseline 388.7×10^9/L) | IC50 [3] | Mean hemoglobin concentrations, end of treatment vs. baseline [4] | Effect on platelet count in treated subjects [5] |
| --- | --- | --- | --- | --- | --- | --- | --- | --- | --- | --- | --- | --- |
| Cc1nc(C(=O)NCC(=O)O)c(O)c2ccc(Oc3ccccc3)cc12 [Compound A, [(4-hydroxy-1-methyl-7-phenoxy-isoquinoline-3-carbonyl)-amino]-acetic acid] | 200 to 2000 nM | −46.55 1×10^9/L | −43.67 1×10^9/L | −1.69 1×10^9/L | −11.88 1×10^9/L | −30.05 | −6.94 | maintained at (or not significantly increased from) the baseline level | decreased from baseline | 200 to 2000 nM | increased from the baseline | – |
| epoetin beta: erythropoiesis-stimulating agent, recombinant human erythropoietin (rHuEPO) | – | – | – | – | – | – | – | – | – | – | – | increase platelet count |
| epoetin α: erythropoiesis-stimulating agent, recombinant human erythropoietin (rHuEPO) | – | – | – | – | – | – | – | – | – | – | – | increase platelet count |
